The nature of data set [1]: Solubility in aqueous solutions. As to conditions: read-out: concentrations at which compound is soluble. It is filed as physicochemical. The procedure:
(§1) An additional sub-micromolar IAP assay using p-nitrophenol phosphate (pNPP) as substrate was developed at the CPCCG and was utilized for hit confirmation. Lead compounds were tested in a panel of assays consisting of: (1) TNAP luminescent assay (substrate: CDP-star); (2) TNAP colorimetric assay (substrate: pNPP); (3) PLAP luminescent assay (substrate: CDP-star); (4) IAP luminescent assay (substrate: CDP-star); (5) IAP colorimetric assay (substrate: pNPP); (6) solubility and (7) glyceraldehyde-3-phosphate dehydrogenase (GAPDH) assay. The latter two assays are designed to identify compounds that are likely to interfere with the assay components and would appear as non-specific inhibitors. Our approach to exploring the SAR for the IAP inhibitor series is shown graphically in Figure 8.
The National Institutes of Health (NIH) Molecular Libraries Small Molecule Repository (MLSMR, http://www.mli.nih.gov/mlsmr) supplied the compound library. […] MLSMR compounds are acquired from commercial and in part from academic and government sources and are selected based on the following criteria: samples are available for resupply in 10-mg quantity, are at least 90% pure, have acceptable physicochemical properties, and contain no functional groups or moieties that are known to generate artifacts in HTS (http://mlsmr.glpg.com/). […]

Data set [2] deals with T1, TNAP (Homo sapiens, UniProt P05186).
T1 construct: made in house; host or cells: COS-1 cells, transient expression; dialyzed serum-free conditioned medium
T1 sequence (P05186 18-501 limits assumed): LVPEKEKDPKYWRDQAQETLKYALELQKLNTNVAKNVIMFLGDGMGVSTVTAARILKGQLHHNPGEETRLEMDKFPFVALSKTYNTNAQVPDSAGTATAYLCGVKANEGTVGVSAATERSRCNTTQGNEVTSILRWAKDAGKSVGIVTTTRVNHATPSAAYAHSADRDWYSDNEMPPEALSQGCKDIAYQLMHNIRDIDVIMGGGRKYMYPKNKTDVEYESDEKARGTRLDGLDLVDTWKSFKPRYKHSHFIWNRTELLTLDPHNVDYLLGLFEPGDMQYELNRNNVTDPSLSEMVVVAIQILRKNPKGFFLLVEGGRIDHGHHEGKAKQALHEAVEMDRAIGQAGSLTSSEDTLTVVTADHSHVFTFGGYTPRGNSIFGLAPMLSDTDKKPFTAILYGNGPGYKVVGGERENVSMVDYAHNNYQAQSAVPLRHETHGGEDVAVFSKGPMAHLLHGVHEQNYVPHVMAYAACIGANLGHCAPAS
Nature of the data set: TNAP luminescent assay (CDP-star substrate, 100 mM DEA). It is filed as biochemical. The procedure: (§2) Development of the novel luminescent TNAP assay using CDP-star substrate and detailed protocol of its application for HTS is described in more detail elsewhere. […] Briefly, the assay was 50 μM CDP-star substrate in assay buffer containing 100 mM DEA-HCl (pH 9.8), 1 mM MgCl2, and 20 μM ZnCl2. The luminescence signal was measured after a 30-min incubation at room temperature on an EnVision plate reader (PerkinElmer, Waltham, MA). […] Detailed protocols can be found in the respective AIDs, however, the final buffer conditions were 100 mM DEA, pH 9.8, 1.0 mM MgCl2, 0.02 mM ZnCl2 for both PLAP and IAP.

Data set [3] concerns the target T1, TNAP. Nature of the data set: TNAP colorimetric assay (pNPP substrate, OD405, 1M DEA). It is filed as biochemical. As to conditions: unit not given in Table 8; n=6; read-out: TNAP-Color. The method, then: The colorimetric TNAP assay was performed as previously described with slight modifications.
The target of data set [4] is T2, IAP (Homo sapiens, UniProt P09923).
T2 construct: made in house; host or cells: COS-1 cells, transient expression; dialyzed serum-free conditioned medium
T2 sequence (P09923 20-503 limits assumed): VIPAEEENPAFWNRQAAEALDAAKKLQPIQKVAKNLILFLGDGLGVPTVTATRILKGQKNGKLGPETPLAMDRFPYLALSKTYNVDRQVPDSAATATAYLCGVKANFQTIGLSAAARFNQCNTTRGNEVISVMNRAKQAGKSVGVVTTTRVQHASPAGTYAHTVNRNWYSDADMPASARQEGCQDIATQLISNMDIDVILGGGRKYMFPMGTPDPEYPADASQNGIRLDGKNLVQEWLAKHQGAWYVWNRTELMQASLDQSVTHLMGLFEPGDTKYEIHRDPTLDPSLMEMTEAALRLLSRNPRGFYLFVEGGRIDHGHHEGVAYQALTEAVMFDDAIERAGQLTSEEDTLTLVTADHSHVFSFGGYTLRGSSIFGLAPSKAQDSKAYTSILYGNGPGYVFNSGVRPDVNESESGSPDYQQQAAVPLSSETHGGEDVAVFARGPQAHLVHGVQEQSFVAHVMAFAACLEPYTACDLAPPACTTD
Nature of the data set: IAP colorimetric assay (pNPP). It is filed as biochemical. The following applies: unit not given in Table 8; n=7; read-out: IAP-Color. The procedure: as §1

On the set-up of data set [5]: method as in PubChem. As to conditions: assays deposited in PubChem; ref PubChem; cited from earlier work.
Data set [6] deals with T3, human PLAP (Homo sapiens, UniProt P05187).
T3 construct: made in house; host or cells: COS-1 cells, transient expression; dialyzed serum-free conditioned medium
Nature of the data set: PLAP luminescent assay (CDP-star). It is filed as biochemical. The method, then:
(§3) Selectivity of Primary Actives Against other Phosphatases: To assess the selectivity of compounds across the alkaline phosphatase family, luminescent assays were developed for human PLAP and human IAP with the same CDP-Star reagent.
as §2

Data set [7] deals with T2, IAP. Nature of the data set: IAP luminescent assay (CDP-star). It is filed as biochemical. The procedure:
as §3, §2

For data set [8], the system named is CYP2C9. Set-up: method as in PubChem. As to conditions: @ 5 µM; ref PubChem; cited from earlier work.
Data set [9] deals with GAPDH (Homo sapiens, UniProt P04406). Nature of the data set: Glyceraldehyde-3-phosphate dehydrogenase (GAPDH) assay. It is filed as biochemical. The method, then: as §1
The National Institutes of Health (NIH) Molecular Libraries Small Molecule Repository (MLSMR, http://www.mli.nih.gov/mlsmr) supplied the compound library. The MLSMR, funded by the NIH, is responsible for the selection of small molecules for HTS screening, their purchase and quality control (QC) analysis, library maintenance, and distribution within the NIH Molecular Libraries Screening Center Network (MLSCN, http://www.mli.nih.gov/mlscn). Both MLSMR and MLSCN are parts of the Molecular Libraries Initiatives (MLI, http://nihroadmap.nih.gov/molecularlibraries) under the NIH Roadmap Initiatives (www.nihroadmap.nih.gov). MLSMR compounds are acquired from commercial and in part from academic and government sources and are selected based on the following criteria: samples are available for resupply in 10-mg quantity, are at least 90% pure, have acceptable physicochemical properties, and contain no functional groups or moieties that are known to generate artifacts in HTS (http://mlsmr.glpg.com/). Compounds are selected to represent diversified chemical space with clusters of closely related analogs around them to aid in the HTS-based structure-activity relationship (SAR) analysis. […]

Data set [10] has as its system CYP2C19. On the set-up: method as in PubChem. As to conditions: @ 5 µM; ref PubChem; cited from earlier work.
For data set [11], the system named is primary calvarial osteoblast cultures. Nature of the data set: Calcification in primary calvarial osteoblast cultures. It is filed as cell-based, mouse. The following applies: 30 µM, osteoblasts of WT mice cultured 19 days. The method, then:
Figure 5 Suppression of calcification by CID-2931238 in primary calvarial osteoblast cultures. Osteoblasts from calvaria bones of WT mice were cultured for 19 days. Media supplemented with 50 µg/mL ascorbic acid and 10 mM β-glycerophosphate were renewed every second or third day (total seven medium changes). The concentration of each compound was maintained at 30 µM. RAU = relative absorbance units.

A short description of data set [12]: Stability in rat liver microsomes (RLM). It is filed as in vitro ADME. The following applies: 20-minute incubation. Background: Liver microsomes are vesicles of endoplasmic reticulum, rich in cytochrome P450 enzymes.
The target in data set [13] is T1, TNAP. Set-up: method as in PMID 17638573. As to conditions: existing inhibitors of TNAP; read-out: TNAP- Color Ki; cited from earlier work.

Read-outs that look alike come from different tables or passages of the source.

T3 sequence (P05187 23-506 limits assumed): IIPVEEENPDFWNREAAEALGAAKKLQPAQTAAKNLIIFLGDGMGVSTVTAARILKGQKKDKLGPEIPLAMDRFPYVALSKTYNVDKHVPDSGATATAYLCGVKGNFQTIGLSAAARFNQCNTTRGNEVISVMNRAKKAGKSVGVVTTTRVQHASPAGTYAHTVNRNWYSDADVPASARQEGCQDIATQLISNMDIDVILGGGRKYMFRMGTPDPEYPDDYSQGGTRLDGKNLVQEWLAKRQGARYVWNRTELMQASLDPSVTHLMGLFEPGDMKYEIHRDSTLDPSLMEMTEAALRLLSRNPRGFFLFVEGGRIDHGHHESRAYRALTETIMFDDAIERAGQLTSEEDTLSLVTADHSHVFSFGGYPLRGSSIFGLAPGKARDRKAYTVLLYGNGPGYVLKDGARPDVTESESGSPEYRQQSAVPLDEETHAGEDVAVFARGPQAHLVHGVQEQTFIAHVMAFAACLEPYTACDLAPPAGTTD
Chain of GAPDH (P04406 whole entry, species assumed): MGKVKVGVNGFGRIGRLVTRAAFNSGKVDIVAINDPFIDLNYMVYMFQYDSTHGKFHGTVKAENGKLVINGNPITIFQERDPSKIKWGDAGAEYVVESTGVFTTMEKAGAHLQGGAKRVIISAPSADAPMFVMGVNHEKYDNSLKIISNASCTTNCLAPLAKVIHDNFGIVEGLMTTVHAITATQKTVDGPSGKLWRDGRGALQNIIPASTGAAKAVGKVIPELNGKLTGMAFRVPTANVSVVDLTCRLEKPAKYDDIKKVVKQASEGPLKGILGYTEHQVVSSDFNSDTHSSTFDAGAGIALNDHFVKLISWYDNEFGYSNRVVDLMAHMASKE

In the case of `O=C1C2CC=CCC2C(=O)N1c1nc(-c2ccccc2)n[nH]1` (stereo not shown) [CID-2946732], in data set [1], the solubility is less than 25 µM. The IC50 is 800 nM in data set [2] (phtalimide triazole series, read-out: IC50 TNAP- Lumi); 795 nM in data set [2] (unit not given in Table 8, n=7, read-out: TNAP-Lumi); more than 100000 nM in data set [3]; 1380 nM in data set [4]; 4810 nM in [6] (unit not given in Table 8, n=3, read-out: PLAP-Lumi); 120 nM in [7] (phtalimide triazole series, read-out: IC50 IAP-Lumi). Further, the IC50 in [7] (unit not printed in Table 8 ([…]), n=7, read-out: IAP-Lumi) stood at 122 nM. For the same molecule, in [5], the cytotoxicity entry is given as “no cytotoxicity”. In addition, the “mode of IAP inhibition versus the CDP-star substrate” value in data set [7] is given as “non-competitive”. Moreover, the “potency relative to all other existing small-molecule inhibitors of IAP” value in data set [7] was > 6,500 fold. Also, the “selectivity for IAP over TNAP” value in data set [7] came out at 7 fold. Also, in data set [8], the 2C9 is given as 92.5% I @. Also, the “effect on GAPDH activity” value in [9] was “no effect”. Further, the 2C19 in data set [10] is given as 79.6% I @.
With `COc1ccc(OC)c(S(=O)(=O)Nc2cnc3ccccc3c2)c1` [MLS-0038949], in [1], the solubility was less than 25 µM. Besides, the inhibition of mineralization result in data set [11] was “completely inhibited mineralization”. In addition, in data set [5], the cytotoxicity result is “no cytotoxicity”. In data set [6] (at or below 100 µM), the “inhibition of PLAP” value was “did not show any inhibition”. The IC50 in [6] (read-out: Selectivity Panel IC50 PLAP) and in data set [7] (read-out: Selectivity Panel IC50 IAP) was more than 100000 nM throughout. In addition, the “inhibition of IAP” value in data set [7] (at or below 100 µM) was “did not show any inhibition”. Also, the “effect on GAPDH activity” value in data set [9] was “no effect”. The “compound remaining in rat liver microsomes” value in data set [12] was “virtually all-of-the compound remained”.
Consider `O=C(NCCO)c1cc(-c2ccc(Cl)c(Cl)c2Cl)n[nH]1` [MLS-0146291], for which, in [2], the “selectivity index against the closest counter-targets (PLAP, GAPDH)” value is > 2,000 fold. Besides, the IC50 was 5 nM in data set [2] (TNAP, read-out: IC50 (Figure 6, pyrazole series optimization)) and 5.19 nM in data set [2] (read-out: TNAP IC50, luminescent assay). For the same molecule, the “inhibition of PLAP” value in data set [6] (at or below 10 µM) is reported as “did not show any inhibition”. For the same molecule, in data set [9] (at or below 10 µM), the “inhibition of GAPDH” value is on record as “did not show any inhibition”.
Turning to `O=C(c1ccccc1)C(Sc1nnc[nH]1)c1ccccc1` (stereo not shown) [MLS-5361418], the Ki (as a rule, a dissociation constant, usually derived from enzyme kinetics or from competition with a known ligand) in data set [13] is 5600 nM.
Consider `Cn1cnnc1Sc1nc(Nc2ccccc2)nc(Nc2ccccc2)n1` [MLS-5804079], for which the Ki in data set [13] was 6500 nM.

The values above are taken from paper PMC3392958, “Assay Format as a Critical Success Factor for Identification of Novel Inhibitor Chemotypes of Tissue-Nonspecific Alkaline Phosphatase from High-Throughput Screening” (Molecules, 2010).
